We go through 22 compounds from PMC9460261, “Need for a Standardized Translational Drug Development Platform: Lessons Learned from the Repurposing of Drugs for COVID-19” (Microorganisms, 2022).

The test system of assay [1] is SARS-CoV-2 in Mucilair human airway epithelia. The assay is classed as cell-based, SARS-CoV-2 BavPat1/2020.
Assay [2] has as its system SARS-CoV-2 in human airway epithelial cells at air-liquid interface. The assay is classed as cell-based, SARS-CoV-2_B.1.1.7.
Assay [3] has the same test system. Set-up: method as in earlier work. Conditions: 4 dpi, cited from earlier work.

Where a name gives a salt, the structure may show the parent alone. Read-outs that look alike come from different tables or passages of the source. Bounds are passed on as bounds.

Consider `CC(=O)Oc1ccccc1C(=O)Nc1ncc([N+](=O)[O-])s1` [Nitazoxanide, nitazoxanide], for which, in assay [1], the “Activity, HAEC/ALI (BavPat variant)” value is on record as “Yes” and the “Log Viral titer Reduction (Compared to Virus Control), HAEC/ALI (BavPat variant)” value is listed as -1.59 (+-0.72) log. As to `CC(C)OC(=O)[C@H](C)N[P@](=O)(OC[C@H]1O[C@@H](n2ccc(=O)[nH]c2=O)[C@](C)(F)[C@@H]1O)Oc1ccccc1` [Sofosbuvir, sofosbuvir], the “Log Viral Load Reduction (Compared to Virus Control and Background), HAEC/ALI (alpha variant)” value in assay [2] (10 uM, […]) is listed as -0.56 (+-0.10) log.

Regarding `COc1ccc2cc1Oc1ccc(cc1)C[C@H]1c3c(cc4c(c3Oc3cc5c(cc3OC)CCN(C)[C@@H]5C2)OCO4)CCN1C` [Cepharanthine, cepharanthine], in assay [2], the “Log Viral Load Reduction (Compared to Virus Control and Background), HAEC/ALI (alpha variant)” value was 0.92 (+-0.97) log. On to `CCN(CC)Cc1cc(Nc2ccnc3cc(Cl)ccc23)ccc1O` [Amodiaquine, amodiaquine], for which the “Log Viral titer Reduction (Compared to Virus Control), HAEC/ALI (BavPat variant)” value in assay [1] (10 uM, […]) is listed as -0.51 (+-1.60) log. On to ivermectin, for which, in assay [2] (10 uM, […]), the “Activity, HAEC/ALI (alpha variant)” value is given as “Toxic”; the “Log Viral Load Reduction (Compared to Virus Control and Background), HAEC/ALI (alpha variant)” value is reported as greater than 4.09 log. Regarding `Cc1c(O)cccc1C(=O)N[C@@H](CSc1ccccc1)[C@H](O)CN1C[C@H]2CCCC[C@H]2C[C@H]1C(=O)NC(C)(C)C` [Nelfinavir, nelfinavir], in assay [2] (10 uM, […]), the “Activity, HAEC/ALI (alpha variant)” value is “YES”; the “Log Viral Load Reduction (Compared to Virus Control and Background), HAEC/ALI (alpha variant)” value is 3.2 (+-1.4) log. Regarding `COc1cc2c(c(OC)c1OC)-c1ccc(OC)c(=O)cc1[C@@H](NC(C)=O)CC2` [Colchicine, colchicine], the “Log Viral Load Reduction (Compared to Virus Control and Background), HAEC/ALI (alpha variant)” value in assay [2] is on record as -0.2 (+-0.44) log. In the case of `CNCCC(Oc1ccc(C(F)(F)F)cc1)c1ccccc1` (stereo not shown) [Fluoxetine, fluoxetine], the “Log Viral Load Reduction (Compared to Virus Control and Background), HAEC/ALI (alpha variant)” value in assay [2] is reported as -0.12 (+-0.10). Further, in assay [1], the “Log Viral titer Reduction (Compared to Virus Control), HAEC/ALI (BavPat variant)” value is listed as 0.68 (+-0.11). As for `O=c1nc(NO)ccn1[C@@H]1O[C@H](CO)[C@@H](O)[C@H]1O` [EIDD-1931], the “Log Viral Load Reduction (Compared to Virus Control and Background), HAEC/ALI (alpha variant)” value in assay [2] is “+Inc”; in assay [2] (10 uM, […]), “+Inc”. Consider bemnifosbuvir, for which the “Log Viral Load Reduction (Compared to Virus Control and Background), HAEC/ALI (alpha variant)” value in assay [2] is -0.35 (+-1.2) log. Also, the “Log Viral titer Reduction (Compared to Virus Control), HAEC/ALI (BavPat variant)” value in assay [1] (0.1 uM, […]) was -0.12 (+-0.4) log; in assay [1] (0.3 uM, […]), -0.38 (+-0.18) log. Take `CCCN(CCC)S(=O)(=O)c1ccc(C(=O)O)cc1` [Probenecid, probenecid]: the “Log Viral Load Reduction (Compared to Virus Control and Background), HAEC/ALI (alpha variant)” value in assay [2] (10 uM, […]) is on record as 0.34 (+-1.0) log.

`COC(=O)N[C@H](C(=O)N1CCC[C@H]1c1nc(-c2ccc(-c3ccc(-c4c[nH]c([C@@H]5CCCN5C(=O)[C@@H](NC(=O)OC)C(C)C)n4)cc3)cc2)c[nH]1)C(C)C` [Daclatasvir, daclatasvir]: the “Log Viral Load Reduction (Compared to Virus Control and Background), HAEC/ALI (alpha variant)” value in assay [2] (10 uM, […]) is 0.17 (+-0.84) log. As to `CN(C)C(=O)COC(=O)Cc1ccc(OC(=O)c2ccc(NC(=N)N)cc2)cc1` [Camostat mesylate, camostat mesylate], in assay [2], the “Activity, HAEC/ALI (alpha variant)” value is “YES”; the “Log Viral Load Reduction (Compared to Virus Control and Background), HAEC/ALI (alpha variant)” value is recorded as greater than 1.7 log.

For `NC(=O)c1nc(F)c[nH]c1=O` [Favipiravir, favipiravir], in assay [2] (300 uM, […]), the “Log Viral Load Reduction (Compared to Virus Control and Background), HAEC/ALI (alpha variant)” value is -0.4 (+/-0.2) log. Consider `CC(C)C(=O)OC[C@H]1O[C@@H](n2ccc(NO)nc2=O)[C@H](O)[C@@H]1O` [Molnupiravir, molnupiravir], for which the “Log Viral Load Reduction (Compared to Virus Control and Background), HAEC/ALI (alpha variant)” value was 1.9 (+-1.3) log in assay [2] and 5.4 (+-1.5) log in assay [2] (10 uM, […]). Besides, the “Activity, HAEC/ALI (alpha variant)” value in assay [2] (3 uM, […], § variability observed) is given as “YES”; in assay [2] (10 uM, […]), “YES”. For the same compound, the “Activity, HAEC/ALI (BavPat variant)” value in assay [1] is “YES”. The “Log Viral titer Reduction (Compared to Virus Control), HAEC/ALI (BavPat variant)” value in assay [1] (0.3 uM, […]) is recorded as -0.39 (+-0.48) log. As to `COC(=O)N[C@H](C(=O)N[C@@H](Cc1ccccc1)[C@@H](O)CN(Cc1ccc(-c2ccccn2)cc1)NC(=O)[C@@H](NC(=O)OC)C(C)(C)C)C(C)(C)C` [Atazanavir, atazanavir], the “Log Viral titer Reduction (Compared to Virus Control), HAEC/ALI (BavPat variant)” value in assay [1] (10 uM, […]) is 0.09 (+-0.64) log. With `Nc1c(Br)cc(Br)cc1CN[C@H]1CC[C@H](O)CC1` [Ambroxol, ambroxol], the “Log Viral Load Reduction (Compared to Virus Control and Background), HAEC/ALI (alpha variant)” value in assay [2] was “–1.0 (+-0.71) log”.

Take `OC(c1cc(C(F)(F)F)nc2c(C(F)(F)F)cccc12)C1CCCCN1` (stereo not shown) [Mefloquine, mefloquine]: the “Log Viral Load Reduction (Compared to Virus Control and Background), HAEC/ALI (alpha variant)” value in assay [2] (10 uM, […]) is given as 0.45 (+-2.02) log. With `CC(C)(C)[C@H](NC(=O)C(F)(F)F)C(=O)N1C[C@H]2[C@@H]([C@H]1C(=O)N[C@H](C#N)C[C@@H]1CCNC1=O)C2(C)C` [Nirmatrelvir, nirmatrelvir], the “Log Viral Load Reduction (Compared to Virus Control and Background), HAEC/ALI (alpha variant)” value was -0.30 (+-0.41) log in assay [3] (0.03 uM), 1.9 (+-1.6) log in assay [3] (0.1 uM) and greater than 3.8 log in assay [3] (1 uM). Also, the “Activity, HAEC/ALI (alpha variant)” value in assay [3] (0.1 uM, § variability observed) was “YES”; in assay [3] (1 uM), “YES”. On to `COCCCC/C(=N\OCCN)c1ccc(C(F)(F)F)cc1` [Fluvoxamine maleate, fluvoxamine maleate], for which the “Log Viral Load Reduction (Compared to Virus Control and Background), HAEC/ALI (alpha variant)” value in assay [2] (10 uM, […]) is reported as “+Inc”. In assay [1] (10 uM, […]), the “Log Viral titer Reduction (Compared to Virus Control), HAEC/ALI (BavPat variant)” value is reported as 0.2(+-0.1) log. On to `CC(=O)CCCCn1c(=O)c2c(ncn2C)n(C)c1=O` [Pentoxyfilline, pentoxyfilline], for which the “Log Viral titer Reduction (Compared to Virus Control), HAEC/ALI (BavPat variant)” value in assay [1] (10 uM, […]) was 0.17(+-0.32) log. Consider `CC1(C)C(=O)N(c2ccc(C#N)c(C(F)(F)F)c2F)C(=S)N1c1ccc(CCCc2ncco2)nc1` [Proxalutamide, proxalutamide], for which the “Log Viral titer Reduction (Compared to Virus Control), HAEC/ALI (BavPat variant)” value in assay [1] (10 uM, […]) is on record as 0.11 (+-0.6) log.
